From ChEMBL document CHEMBL5696439 (Cancer Res, 2010)
Activity calls are given as the source filed them. The rule behind the calls is not given here.

What was measured:
[1] = biological target: Serine/threonine-protein kinase TBK1 (Homo sapiens) (UniProt Q9UHD2); test: Inhibition of recombinant human full length GST-tagged TBK1 expressed in insect cells at 2 uM using Ser/Thr 05 as substrate measured after 1 hr by Z'-LYTE assay relative to control; settings: Insect cell
[2] = biological target: Ephrin type-A receptor 4 (Homo sapiens) (UniProt P54764); test: Inhibition of recombinant human GST-tagged EPHA4 (616-887 residues) expressed in insect cells at 2 uM using Tyr 02 as substrate measured after 1 hr by Z'-LYTE assay relative to control; settings: Insect cell
MDA-MB-361 [3] = test: Induction of apoptosis in PI3K/mTOR hyperactive human MDA-MB-361 cells assessed as cell death at 0.001 to 100 micromol/L incubated for 24 hrs by FACS analysis; type: functional, cell-based; settings: dose 0.001-100 µmol/L
[4] = biological target: Tyrosine-protein kinase Yes (Homo sapiens) (UniProt P07947); test: Inhibition of recombinant human full length GST-tagged YES1 expressed in insect cells at 2 uM using Ser/Thr 07 as substrate measured after 1 hr by Z'-LYTE assay relative to control; settings: Insect cell
mTORC2 (Homo sapiens) = mTORC2 (Homo sapiens) (UniProt P42345+Q6R327+Q9BVC4+Q9BPZ7); settings: U-87 MG, dose 0.025-2 µmol/L, time 6.0 hrs
[5] = biological target: Platelet-derived growth factor receptor alpha (Homo sapiens) (UniProt P16234); test: Inhibition of recombinant human GST-tagged PDGFRA (550-1089 residues) expressed in baculovirus expression system at 2 uM using Tyr 04 as substrate measured after 1 hr by Z'-LYTE assay relative to control
Sequence of Platelet-derived growth factor receptor alpha (Homo sapiens) (P16234 whole entry, the tested form may be a part): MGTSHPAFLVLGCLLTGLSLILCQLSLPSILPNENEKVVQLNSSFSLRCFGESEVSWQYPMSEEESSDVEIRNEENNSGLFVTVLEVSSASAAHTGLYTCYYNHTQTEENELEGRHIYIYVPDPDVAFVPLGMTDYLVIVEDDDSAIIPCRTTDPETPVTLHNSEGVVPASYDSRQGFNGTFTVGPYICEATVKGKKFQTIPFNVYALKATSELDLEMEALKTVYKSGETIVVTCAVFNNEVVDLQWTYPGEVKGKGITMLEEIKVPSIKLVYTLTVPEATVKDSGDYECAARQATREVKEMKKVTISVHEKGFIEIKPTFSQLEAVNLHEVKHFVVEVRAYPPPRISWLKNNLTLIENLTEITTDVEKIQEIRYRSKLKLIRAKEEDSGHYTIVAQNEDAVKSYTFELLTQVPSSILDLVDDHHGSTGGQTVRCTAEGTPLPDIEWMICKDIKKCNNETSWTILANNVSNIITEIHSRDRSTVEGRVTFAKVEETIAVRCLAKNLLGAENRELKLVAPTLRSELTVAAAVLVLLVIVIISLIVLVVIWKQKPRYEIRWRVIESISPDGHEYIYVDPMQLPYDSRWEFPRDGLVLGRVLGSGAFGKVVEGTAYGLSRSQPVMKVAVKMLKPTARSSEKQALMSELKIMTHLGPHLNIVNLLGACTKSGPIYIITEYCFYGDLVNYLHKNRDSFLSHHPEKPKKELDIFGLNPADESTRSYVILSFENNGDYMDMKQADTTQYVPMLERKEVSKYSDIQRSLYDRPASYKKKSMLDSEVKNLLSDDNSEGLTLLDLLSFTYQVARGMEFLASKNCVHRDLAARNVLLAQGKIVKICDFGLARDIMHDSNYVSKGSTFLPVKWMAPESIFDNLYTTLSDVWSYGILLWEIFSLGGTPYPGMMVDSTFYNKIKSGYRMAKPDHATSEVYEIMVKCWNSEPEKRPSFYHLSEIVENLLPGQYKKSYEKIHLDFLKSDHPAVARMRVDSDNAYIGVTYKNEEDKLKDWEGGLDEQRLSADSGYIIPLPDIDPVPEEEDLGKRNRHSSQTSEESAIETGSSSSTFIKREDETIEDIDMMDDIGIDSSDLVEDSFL

[6] = biological target: Serine/threonine-protein kinase Chk1 (Homo sapiens) (UniProt O14757); test: Inhibition of recombinant human full-length His-tagged CHEK1 expressed in baculovirus expression system at 2 uM using Ser/Thr 19 as substrate measured after 1 hr by Z'-LYTE assay relative to control
[7] = system: Mast/stem cell growth factor receptor Kit (Homo sapiens), P10721 [T670I]; test: Inhibition of recombinant human His-tagged KIT T670I mutant (544-976 residues) expressed in insect cells at 2 uM using […] as substrate measured after 1 hr by Z'-LYTE assay relative to control
[8] = biological target: Receptor tyrosine-protein kinase erbB-2 (Homo sapiens) (UniProt P04626); test: Inhibition of recombinant human His-tagged ERBB2 (676-1255 residues) expressed in insect cells at 2 uM using Tyr 06 as substrate measured after 1 hr by Z'-LYTE assay relative to control; settings: Insect cell
Sequence of Receptor tyrosine-protein kinase erbB-2 (Homo sapiens) (P04626 whole entry, the tested form may be a part, canonical isoform): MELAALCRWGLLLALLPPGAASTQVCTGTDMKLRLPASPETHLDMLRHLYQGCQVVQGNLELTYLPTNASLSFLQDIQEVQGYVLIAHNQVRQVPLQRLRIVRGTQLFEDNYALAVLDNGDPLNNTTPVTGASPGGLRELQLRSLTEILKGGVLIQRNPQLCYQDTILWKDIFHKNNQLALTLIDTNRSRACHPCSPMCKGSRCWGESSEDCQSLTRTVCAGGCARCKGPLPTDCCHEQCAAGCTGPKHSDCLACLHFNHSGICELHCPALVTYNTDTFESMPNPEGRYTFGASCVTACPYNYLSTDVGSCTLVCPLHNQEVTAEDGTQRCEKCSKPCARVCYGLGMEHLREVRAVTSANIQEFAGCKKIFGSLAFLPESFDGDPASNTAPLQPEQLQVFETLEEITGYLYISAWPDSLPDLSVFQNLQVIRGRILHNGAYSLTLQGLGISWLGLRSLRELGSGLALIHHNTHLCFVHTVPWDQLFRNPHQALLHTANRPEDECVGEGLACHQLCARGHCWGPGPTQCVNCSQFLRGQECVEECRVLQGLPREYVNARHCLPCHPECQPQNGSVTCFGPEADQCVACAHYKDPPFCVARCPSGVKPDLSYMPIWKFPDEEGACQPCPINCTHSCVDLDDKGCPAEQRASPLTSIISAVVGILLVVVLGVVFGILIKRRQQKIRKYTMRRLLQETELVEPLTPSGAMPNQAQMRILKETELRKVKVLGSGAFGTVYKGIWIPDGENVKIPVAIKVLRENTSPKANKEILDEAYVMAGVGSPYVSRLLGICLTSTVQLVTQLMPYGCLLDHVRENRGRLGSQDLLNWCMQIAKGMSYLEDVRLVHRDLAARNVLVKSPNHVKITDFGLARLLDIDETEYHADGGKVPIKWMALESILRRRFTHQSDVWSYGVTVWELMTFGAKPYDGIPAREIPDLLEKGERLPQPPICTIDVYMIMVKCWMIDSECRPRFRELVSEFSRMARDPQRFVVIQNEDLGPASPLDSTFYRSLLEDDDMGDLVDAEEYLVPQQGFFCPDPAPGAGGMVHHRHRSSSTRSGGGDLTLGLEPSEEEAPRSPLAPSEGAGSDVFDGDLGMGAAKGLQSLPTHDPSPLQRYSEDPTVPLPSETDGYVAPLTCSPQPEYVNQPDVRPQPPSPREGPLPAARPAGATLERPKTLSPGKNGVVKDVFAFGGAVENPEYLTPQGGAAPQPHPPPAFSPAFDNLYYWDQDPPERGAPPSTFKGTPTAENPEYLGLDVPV

[9] = biological target: Phosphatidylinositol 4,5-bisphosphate 3-kinase catalytic subunit gamma isoform (Homo sapiens, UniProt P48736); test: Inhibition of PI3Kgamma (unknown origin) using PIP2 as substrate measured after 15 to 30 mins by fluorescence polarization assay
[10] = biological target: Aurora kinase A (Homo sapiens) (UniProt O14965); test: Inhibition of recombinant human full-length His-tagged AURKA expressed in insect cells at 2 uM using Ser/Thr 01 as substrate measured after 1 hr by Z'-LYTE assay relative to control; settings: Insect cell
Sequence of Aurora kinase A (Homo sapiens) (O14965 whole entry): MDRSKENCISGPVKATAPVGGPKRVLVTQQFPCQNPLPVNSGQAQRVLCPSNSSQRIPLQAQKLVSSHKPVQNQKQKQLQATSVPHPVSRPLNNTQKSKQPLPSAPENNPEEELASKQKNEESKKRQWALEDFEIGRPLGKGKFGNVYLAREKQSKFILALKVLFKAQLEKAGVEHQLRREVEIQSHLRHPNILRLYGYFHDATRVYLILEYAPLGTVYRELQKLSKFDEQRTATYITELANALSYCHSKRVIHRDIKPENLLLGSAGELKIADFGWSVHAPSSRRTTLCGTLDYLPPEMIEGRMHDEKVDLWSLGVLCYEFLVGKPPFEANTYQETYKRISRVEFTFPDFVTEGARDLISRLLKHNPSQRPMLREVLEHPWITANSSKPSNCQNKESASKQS

U-87 MG = test: Antiproliferative activity against human U-87MG cells assessed as cell growth inhibition incubated for 24 hrs by MTS assay; type: functional, cell-based, U-87MG ATCC
A498 = test: Antiproliferative activity against human A498 cells assessed as cell growth inhibition at 10 micromol/L incubated for 3 days by MTS assay relative to control; type: functional; settings: A498, 72 h, dose 10 µmol/L, time 3 day
[11] = biological target: RAC-alpha serine/threonine-protein kinase (Homo sapiens) (UniProt P31749); test: Inhibition of recombinant human full-length His-tagged AKT1 expressed in insect cells at 2 uM using Ser/Thr 06 as substrate measured after 1 hr by Z'-LYTE assay relative to control; settings: Insect cell
[12] = biological target: Tyrosine-protein kinase SYK (Homo sapiens) (UniProt P43405); test: Inhibition of recombinant human full length GST-tagged SYK expressed in baculovirus expression system at 2 uM using […] as substrate measured after 1 hr by Z'-LYTE assay relative to control
[13] = biological target: Protein kinase C epsilon type (Homo sapiens) (UniProt Q02156); test: Inhibition of recombinant human full length GST-tagged PRKCE expressed in insect cells at 2 uM using Ser/Thr 07 as substrate measured after 1 hr by Z'-LYTE assay relative to control; settings: Insect cell
Sequence of Protein kinase C epsilon type (Homo sapiens) (Q02156 whole entry): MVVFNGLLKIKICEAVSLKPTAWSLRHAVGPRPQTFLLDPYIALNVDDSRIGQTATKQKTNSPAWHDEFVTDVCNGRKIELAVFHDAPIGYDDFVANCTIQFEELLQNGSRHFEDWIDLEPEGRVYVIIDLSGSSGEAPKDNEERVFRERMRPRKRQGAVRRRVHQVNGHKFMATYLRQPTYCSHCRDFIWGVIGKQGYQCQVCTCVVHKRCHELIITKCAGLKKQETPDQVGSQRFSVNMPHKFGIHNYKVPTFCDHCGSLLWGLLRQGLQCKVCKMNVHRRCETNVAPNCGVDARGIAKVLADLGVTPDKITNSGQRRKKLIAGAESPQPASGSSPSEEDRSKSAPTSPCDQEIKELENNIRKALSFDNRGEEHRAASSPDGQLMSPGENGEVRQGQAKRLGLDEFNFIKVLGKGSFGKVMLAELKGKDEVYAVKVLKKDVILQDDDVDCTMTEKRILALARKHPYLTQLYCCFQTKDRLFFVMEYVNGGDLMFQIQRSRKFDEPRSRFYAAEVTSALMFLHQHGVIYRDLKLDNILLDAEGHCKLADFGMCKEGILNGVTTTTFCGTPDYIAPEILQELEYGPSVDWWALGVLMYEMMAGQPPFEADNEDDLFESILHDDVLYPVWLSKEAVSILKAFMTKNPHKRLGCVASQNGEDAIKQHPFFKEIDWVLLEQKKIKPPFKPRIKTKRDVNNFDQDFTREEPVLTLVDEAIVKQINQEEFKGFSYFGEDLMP

[14] = biological target: Mitogen-activated protein kinase 13 (Homo sapiens) (UniProt O15264); test: Inhibition of recombinant human full length His-tagged MAPK13 expressed in baculovirus expression system at 2 uM using Ser/Thr 03 as substrate measured after 1 hr by Z'-LYTE assay relative to control
[15] = biological target: Dual specificity protein kinase CLK1 (Homo sapiens) (UniProt P49759); test: Inhibition of recombinant human GST-tagged CLK1 (129-484 residues) expressed in E. coli at 2 uM using Ser/Thr 09 as substrate measured after 1 hr by Z'-LYTE assay relative to control
Sequence of Dual specificity protein kinase CLK1 (Homo sapiens) (P49759 whole entry, looked up, the tested form may be a part): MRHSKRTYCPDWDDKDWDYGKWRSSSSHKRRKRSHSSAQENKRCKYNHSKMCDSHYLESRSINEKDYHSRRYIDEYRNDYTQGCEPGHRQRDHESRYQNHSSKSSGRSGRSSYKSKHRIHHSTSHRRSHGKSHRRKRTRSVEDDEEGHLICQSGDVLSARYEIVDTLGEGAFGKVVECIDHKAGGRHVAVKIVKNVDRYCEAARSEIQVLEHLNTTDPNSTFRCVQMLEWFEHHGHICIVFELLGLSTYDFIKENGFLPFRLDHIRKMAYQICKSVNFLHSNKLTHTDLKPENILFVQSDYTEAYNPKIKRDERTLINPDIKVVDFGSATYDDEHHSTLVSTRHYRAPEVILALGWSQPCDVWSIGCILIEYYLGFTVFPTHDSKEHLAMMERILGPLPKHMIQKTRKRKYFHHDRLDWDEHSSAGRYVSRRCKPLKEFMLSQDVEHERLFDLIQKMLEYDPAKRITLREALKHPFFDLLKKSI

[16] = biological target: MAP kinase-activated protein kinase 5 (Homo sapiens) (UniProt Q8IW41); test: Inhibition of recombinant human full length His-tagged MAPKAPK5 expressed in baculovirus expression system at 2 uM using Ser/Thr 04 as substrate measured after 1 hr by Z'-LYTE assay relative to control
[17] = biological target: Ephrin type-A receptor 8 (Homo sapiens) (UniProt P29322); test: Inhibition of recombinant human GST-tagged EPHA8 (565-1005 residues) expressed in insect cells at 2 uM using Tyr 02 as substrate measured after 1 hr by Z'-LYTE assay relative to control; settings: Insect cell
[18] = system: Tyrosine-protein kinase JAK2 (Homo sapiens), O60674 [V617F]; test: Inhibition of recombinant human GST-tagged JAK2 JH1 JH2 domains V617F mutant (532-1132 residues) expressed in insect cells at 2 uM using Tyr 06 as substrate measured after 1 hr by Z'-LYTE assay relative to control; settings: Insect cell
[19] = biological target: Receptor-type tyrosine-protein kinase FLT3 (Homo sapiens) (UniProt P36888); test: Inhibition of recombinant human His-tagged FLT3 (564-958 residues) expressed in insect cells at 2 uM using Tyr 02 as substrate measured after 1 hr by Z'-LYTE assay relative to control; settings: Insect cell
Sequence of Receptor-type tyrosine-protein kinase FLT3 (Homo sapiens) (P36888 whole entry, the tested form may be a part): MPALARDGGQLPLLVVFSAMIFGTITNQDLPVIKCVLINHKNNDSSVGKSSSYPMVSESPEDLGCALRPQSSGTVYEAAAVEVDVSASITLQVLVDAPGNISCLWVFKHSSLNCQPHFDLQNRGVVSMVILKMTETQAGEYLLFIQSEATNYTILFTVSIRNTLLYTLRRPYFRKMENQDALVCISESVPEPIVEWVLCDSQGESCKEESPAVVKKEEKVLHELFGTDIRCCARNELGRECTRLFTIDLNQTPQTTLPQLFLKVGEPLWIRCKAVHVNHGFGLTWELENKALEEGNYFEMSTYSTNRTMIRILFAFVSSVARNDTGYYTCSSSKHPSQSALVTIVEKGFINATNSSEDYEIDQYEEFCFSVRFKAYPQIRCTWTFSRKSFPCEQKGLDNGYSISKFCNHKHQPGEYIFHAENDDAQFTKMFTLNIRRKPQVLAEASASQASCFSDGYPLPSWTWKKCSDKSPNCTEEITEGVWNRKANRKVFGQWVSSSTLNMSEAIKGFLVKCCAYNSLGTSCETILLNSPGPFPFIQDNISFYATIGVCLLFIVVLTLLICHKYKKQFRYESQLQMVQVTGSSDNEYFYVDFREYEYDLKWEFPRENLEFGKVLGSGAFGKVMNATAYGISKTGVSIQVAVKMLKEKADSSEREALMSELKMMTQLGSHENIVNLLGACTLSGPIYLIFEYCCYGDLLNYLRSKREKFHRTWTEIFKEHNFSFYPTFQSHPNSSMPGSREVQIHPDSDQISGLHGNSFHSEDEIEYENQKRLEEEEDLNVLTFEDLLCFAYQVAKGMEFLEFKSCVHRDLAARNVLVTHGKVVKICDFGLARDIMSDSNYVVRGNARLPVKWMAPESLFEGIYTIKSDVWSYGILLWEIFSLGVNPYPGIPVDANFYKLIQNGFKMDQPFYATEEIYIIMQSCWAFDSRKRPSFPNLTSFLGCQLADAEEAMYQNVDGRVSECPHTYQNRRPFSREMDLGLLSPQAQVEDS

[20] = biological target: Dual specificity mitogen-activated protein kinase kinase 6 (Homo sapiens) (UniProt P52564); test: Inhibition of recombinant human full length His-tagged MAP2K6 expressed in baculovirus expression system at 2 uM using Ser/Thr 03 as substrate measured after 1 hr by Z'-LYTE assay relative to control
[21] = biological target: Myosin light chain kinase 2, skeletal/cardiac muscle (Homo sapiens) (UniProt Q9H1R3); test: Inhibition of recombinant human full length GST-tagged MYLK2 expressed in insect cells at 2 uM using Ser/Thr 13 as substrate measured after 1 hr by Z'-LYTE assay relative to control; settings: Insect cell
MDA-MB-361 [22] = test: Antitumor activity against human MDA-MB-361 cells xenografted in female nude mouse model assessed as suppression in P-AKT at S473 level at 50 mg/kg, iv administered once a week and measured at least 8 hrs by immunoblot analysis; type: functional, organism-based

CNC(=O)Nc1ccc(-c2nc(N3CC4CCC(C3)O4)c3cnn(C4CCC5(CC4)OCCO5)c3n2)cc1
inhibition [1]: 2% | inhibition [2]: -1% | Activity (MDA-MB-361 [3]): Active | inhibition [4]: 2% | inhibition (mTORC2 (Homo sapiens)): inactive | inhibition [5]: 0% | inhibition [6]: 9% | inhibition [7]: 7% | inhibition [8]: 0% | IC50 [9]: > 10000 nM | inhibition [10]: 0% | IC50 (U-87 MG): 65 nM | inhibition at 10 µM (A498): 100% | inhibition [11]: -5% | inhibition [12]: 1% | inhibition [13]: 15% | inhibition [14]: 4% | inhibition [15]: -3% | inhibition [16]: 5% | inhibition [17]: 24% | inhibition [18]: 4% | inhibition [19]: 17% | inhibition [20]: 8% | inhibition [21]: 8% | Activity (MDA-MB-361 [22]): Active
